Test [1] concerns the target T1, Plasma kallikrein (Homo sapiens, UniProt P03952). The experiment in a line: Inhibition of human plasma kallikrein using H-D-Pro-Phe-Arg-p-nitroaniline as substrate assessed as inhibition constant.
Test [2] has as its target T1, Plasma kallikrein. The experiment in a line: Inhibition of human plasma kallikrein incubated for 1 hrs.
Test [3] has as its target T2, Prothrombin (Homo sapiens, UniProt P00734). The experiment in a line: Inhibition of thrombin (unknown origin).
In test [4] the target is T3, Plasminogen (Homo sapiens, UniProt P00747). The experiment in a line: Inhibition of plasmin (unknown origin).
Test [5] deals with T3, Plasminogen. The experiment in a line: Inhibition of human plasmin by fluorescence based analysis.
For test [6], the target named is T2, Prothrombin. The experiment in a line: Inhibition of human thrombin by fluorescence based analysis.
Test [7] deals with T4, Coagulation factor XII (Homo sapiens, UniProt P00748).
T4 sequence (P00748 whole entry): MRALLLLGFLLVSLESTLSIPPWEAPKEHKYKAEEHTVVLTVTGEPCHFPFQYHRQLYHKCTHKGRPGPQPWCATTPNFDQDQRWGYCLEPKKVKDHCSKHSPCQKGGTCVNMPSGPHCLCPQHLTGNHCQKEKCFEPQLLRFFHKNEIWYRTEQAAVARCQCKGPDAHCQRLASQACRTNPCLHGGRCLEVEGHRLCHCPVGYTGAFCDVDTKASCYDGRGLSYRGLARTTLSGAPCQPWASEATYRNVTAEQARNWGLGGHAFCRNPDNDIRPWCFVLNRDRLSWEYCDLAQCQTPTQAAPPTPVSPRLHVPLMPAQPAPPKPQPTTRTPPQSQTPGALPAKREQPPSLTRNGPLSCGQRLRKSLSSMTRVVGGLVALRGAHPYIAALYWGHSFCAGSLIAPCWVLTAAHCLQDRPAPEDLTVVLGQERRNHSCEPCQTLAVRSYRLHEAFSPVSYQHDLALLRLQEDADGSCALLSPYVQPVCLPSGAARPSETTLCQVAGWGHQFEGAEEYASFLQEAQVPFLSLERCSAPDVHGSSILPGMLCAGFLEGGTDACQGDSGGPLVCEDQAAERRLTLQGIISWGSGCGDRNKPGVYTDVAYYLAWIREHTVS
The experiment in a line: Inhibition of fXIIa (unknown origin).

Test [8] deals with T4, Coagulation factor XII. Put plainly: Inhibition of human fXIIa incubated for 1 hrs.
The target of test [9] is T1, Plasma kallikrein. The experiment in a line: Inhibition of human plasma kallikrein usingPro-Phe-Arg-AMC as substrate incubated for 5 mins. Format: single protein.
For test [10], the target named is T1, Plasma kallikrein. Put plainly: Inhibition of plasma kallikrein (unknown origin).
Test [11] concerns the target Urokinase-type plasminogen activator (Homo sapiens, UniProt P00749). Put plainly: Inhibition of Urokinase (unknown origin).
The next test addresses Trypsin (Homo sapiens, UniProt P07477+P07478+P35030). Put plainly: Inhibition of trypsin (unknown origin). It counts as protein assay.
Test [12] addresses T5, Kallikrein-1 (Homo sapiens, UniProt P06870). Put plainly: Inhibition of KLK1 (unknown origin).
The target in test [13] is T6, Coagulation factor XI (Homo sapiens, UniProt P03951). Put plainly: Inhibition of fXIa (unknown origin).
Test [14] has as its target T5, Kallikrein-1. The experiment in a line: Inhibition of human KLK1 using H-DVal-Leu-Arg-AFC as substrate.
The target of test [15] is T1, Plasma kallikrein. The experiment in a line: Inhibition of human plasma kallikrein using H-DPro-Phe-Arg-AFC as substrate.
In test [16] the target is T5, Kallikrein-1. Put plainly: Inhibition of human KLK1.
For test [17], the target named is T6, Coagulation factor XI. The experiment in a line: Inhibition of human fXIa.

Bounds are passed on as bounds.

T5 sequence (P06870 whole entry): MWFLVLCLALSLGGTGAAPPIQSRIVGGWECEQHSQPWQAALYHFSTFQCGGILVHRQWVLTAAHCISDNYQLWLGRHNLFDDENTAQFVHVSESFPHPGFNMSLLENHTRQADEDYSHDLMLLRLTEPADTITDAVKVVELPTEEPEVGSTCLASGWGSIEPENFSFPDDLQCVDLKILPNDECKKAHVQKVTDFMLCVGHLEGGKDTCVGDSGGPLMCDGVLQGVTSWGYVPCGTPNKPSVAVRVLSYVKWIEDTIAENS
T3 sequence (P00747 97-580 limits assumed): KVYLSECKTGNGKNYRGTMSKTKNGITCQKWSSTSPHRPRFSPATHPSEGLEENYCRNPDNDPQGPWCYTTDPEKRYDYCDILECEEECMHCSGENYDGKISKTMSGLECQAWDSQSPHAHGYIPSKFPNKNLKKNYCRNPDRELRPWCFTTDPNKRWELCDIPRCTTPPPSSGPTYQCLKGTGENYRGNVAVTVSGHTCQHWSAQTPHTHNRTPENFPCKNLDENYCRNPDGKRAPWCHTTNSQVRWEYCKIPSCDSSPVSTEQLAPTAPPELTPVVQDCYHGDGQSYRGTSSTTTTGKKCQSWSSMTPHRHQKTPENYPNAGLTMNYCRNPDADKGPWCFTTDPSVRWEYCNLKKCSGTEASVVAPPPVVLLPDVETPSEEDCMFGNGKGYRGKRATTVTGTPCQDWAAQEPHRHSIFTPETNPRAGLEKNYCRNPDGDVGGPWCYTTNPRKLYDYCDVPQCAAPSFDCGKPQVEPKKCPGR
T3 sequence (P00747 581-810 limits assumed): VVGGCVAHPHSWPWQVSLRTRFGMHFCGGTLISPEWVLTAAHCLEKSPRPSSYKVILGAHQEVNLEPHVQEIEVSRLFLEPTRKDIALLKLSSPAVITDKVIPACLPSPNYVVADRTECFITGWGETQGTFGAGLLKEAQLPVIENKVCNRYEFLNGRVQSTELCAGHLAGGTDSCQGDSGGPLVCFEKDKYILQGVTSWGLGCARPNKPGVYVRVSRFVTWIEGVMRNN
T1 sequence (P03952 20-390 limits assumed): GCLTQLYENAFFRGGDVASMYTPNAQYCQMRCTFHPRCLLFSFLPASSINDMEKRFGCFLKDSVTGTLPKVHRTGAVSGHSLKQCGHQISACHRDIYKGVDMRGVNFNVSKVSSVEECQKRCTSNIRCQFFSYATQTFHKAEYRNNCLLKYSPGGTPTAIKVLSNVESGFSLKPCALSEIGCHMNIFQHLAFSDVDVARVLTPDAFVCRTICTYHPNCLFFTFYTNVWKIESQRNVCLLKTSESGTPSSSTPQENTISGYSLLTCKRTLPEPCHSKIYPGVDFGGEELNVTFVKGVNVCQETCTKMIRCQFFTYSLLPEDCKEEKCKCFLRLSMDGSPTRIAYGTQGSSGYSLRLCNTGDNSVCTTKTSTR
T1 sequence (P03952 391-638 limits assumed): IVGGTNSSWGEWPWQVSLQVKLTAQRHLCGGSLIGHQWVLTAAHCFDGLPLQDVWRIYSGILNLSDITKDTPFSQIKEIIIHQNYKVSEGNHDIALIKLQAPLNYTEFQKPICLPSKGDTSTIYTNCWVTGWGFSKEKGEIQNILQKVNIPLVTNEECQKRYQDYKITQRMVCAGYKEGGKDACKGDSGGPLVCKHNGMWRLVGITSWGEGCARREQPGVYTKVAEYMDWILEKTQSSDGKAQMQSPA
T6 sequence (P03951 19-387 limits assumed): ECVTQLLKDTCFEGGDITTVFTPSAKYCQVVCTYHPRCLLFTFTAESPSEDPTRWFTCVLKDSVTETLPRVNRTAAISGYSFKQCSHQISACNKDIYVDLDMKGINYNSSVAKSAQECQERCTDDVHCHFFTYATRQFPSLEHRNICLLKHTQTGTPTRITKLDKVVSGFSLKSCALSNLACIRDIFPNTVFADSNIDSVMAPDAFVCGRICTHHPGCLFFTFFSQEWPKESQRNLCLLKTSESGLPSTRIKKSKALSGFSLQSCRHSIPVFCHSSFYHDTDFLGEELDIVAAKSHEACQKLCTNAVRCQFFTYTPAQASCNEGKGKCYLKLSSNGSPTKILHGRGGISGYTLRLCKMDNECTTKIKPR
T6 sequence (P03951 388-625 limits assumed): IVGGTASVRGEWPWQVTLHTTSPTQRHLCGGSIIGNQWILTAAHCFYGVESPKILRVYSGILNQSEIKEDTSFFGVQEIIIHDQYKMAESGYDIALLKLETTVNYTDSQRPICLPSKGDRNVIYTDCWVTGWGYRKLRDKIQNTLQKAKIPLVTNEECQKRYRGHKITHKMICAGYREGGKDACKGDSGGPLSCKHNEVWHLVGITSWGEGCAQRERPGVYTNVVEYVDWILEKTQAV

Broadly, the IC50 is the concentration at which inhibition is half-maximal. Take `NCc1cccc(-n2nc(C(F)(F)F)cc2C(=O)Nc2cccc(C(O)c3ccccc3)c2)c1` (configuration not stated): on Plasma kallikrein [1], the IC50 was above 50000 nM.
As to `CO[C@@H]1C[C@H](C(=O)Nc2cc(C(N)(CCC3CC3)c3cccc(C#N)c3)ccc2F)N(C(=O)Nc2ccc(Cl)cn2)C1` (some centres not stated), the IC50 at Plasma kallikrein [1] is below 50 nM.
In turn, `Cc1cnn(Cc2ccc(Cn3cc(C(=O)NCc4cnc5[nH]cc(Cl)c5c4)c(C#N)n3)cc2)c1` came in with an IC50 against Plasma kallikrein [2] of 1 nM.
Take `CCOc1ccc(C[C@@H](NC(=O)c2ccccc2)C(=O)N[C@@H](Cc2ccccc2)C(=O)NCc2ccc(CN)cc2)cc1`: the IC50 at Prothrombin [3] was above 10000 nM; against Plasminogen [4], 22 nM; on Plasminogen [5], above 10000 nM; on Prothrombin [6] it was above 10000 nM; against Coagulation factor XII [7] it was above 50000 nM.
For `Cc1nc(N)cc2c1CNC(=O)c1cnn(c1)Cc1ccc(Cn3cccn3)cc1OCCC/C=C\CCO2`, the IC50 turned out to be 2 nM on Plasma kallikrein [2] and 3600 nM at Coagulation factor XII [8].
The compound `Cc1cc(N)nc(C)c1CNc1ncnc2nc(Cc3ccc4ncc(C(F)(F)F)cc4c3)[nH]c12` had an IC50 against Plasma kallikrein [9] below 100 nM.
In turn, `Nc1nn(Cc2ccc(Cn3ccccc3=O)cc2)cc1C(=O)N[C@H]1CCN(c2cccc(Cl)c2)C1` came in with an IC50 at Plasma kallikrein [10] of 4.8 nM.
`NCC1CCC(C(=O)N[C@@H](Cc2ccccc2)C(=O)Nc2ccc(CC(=O)O)cc2)CC1` (some centres not stated): the IC50 turned out to be 350000 nM in test [11], 620000 nM against Plasminogen [4], 12000 nM against Trypsin and 1300 nM on Plasma kallikrein [10].
On to `COC(=O)c1ccc(NC(=O)[C@H](CCCCN)NC(=O)C2CCC(CN)CC2)cc1` (some centres not stated), for which the IC50 is above 500000 nM against Plasminogen [4] and 50000 nM against Plasma kallikrein [10].
As to `NCc1cccc(-n2nc(C(F)(F)F)cc2C(=O)Nc2cc(C(OCC3CC3)c3ccccc3O)ccc2F)c1` (configuration not stated), the IC50 at Plasma kallikrein [1] turned out to be 100 nM.
On to `Nc1nn(Cc2ccc(Cn3ccccc3=O)cc2)cc1C(=O)NCCOc1cccc(Cl)c1`, for which the IC50 against Kallikrein-1 [12] and on Coagulation factor XI [13] was 2.9 nM each time.
`Clc1cnc2ccc(Cc3nc4ncnc(NCc5n[nH]c6ccc(Cl)cc56)c4[nH]3)cc2c1` came in with an IC50 against Plasma kallikrein [9] below 100 nM.
On the same count and under the same terms, the same measure for `Fc1c(CNc2ncnc3nc(Cc4ccc5ncc(Cl)cc5c4)[nH]c23)ccc2[nH]cc(Cl)c12`: below 100 nM.
Regarding `CC(C)COC(=O)c1ccc(NC(=O)[C@H](CCCNC(=N)N)NC(=O)C2CCC(CN)CC2)cc1` (some centres not stated), the IC50 against Plasminogen [4] turned out to be 370000 nM; against Plasma kallikrein [10], 15000 nM.
In turn, `Cc1cc(N)nc(C)c1CNC(=O)c1cncc(Cc2ccc3ncc(Cl)cc3c2)c1` registered an IC50 against Plasma kallikrein [9] below 100 nM.
Turning to `CCOc1ccc(C[C@@H](NC(=O)c2ccccc2)C(=O)N[C@H](C(=O)NCc2ccc(CN)cc2)[C@H](O)c2ccccc2)cc1`, the IC50 against Kallikrein-1 [14] was found to be 7200 nM; against Plasma kallikrein [15] it was 20 nM.
On to `CO[C@@H]1C[C@H](C(=O)Nc2cc(C(N)(CCC3CC3)c3ccccn3)ccc2F)N(C(=O)Nc2ccc(Cl)cn2)C1` (some centres not stated), for which, at Plasma kallikrein [1], the IC50 was below 50 nM.
Regarding `Cc1nc(N)ccc1CNC(=O)c1ccnc(Cc2ccc(Cn3ccccc3=O)c(S(C)(=O)=O)c2)c1`, the IC50 against Plasma kallikrein [9] was below 100 nM.
`Cc1cc(C)n(Cc2ccc(Cn3cc(C(=O)NCc4c(C)cc(N)nc4C)nn3)cc2)n1`: the IC50 against Kallikrein-1 [16] was above 40000 nM; against Coagulation factor XI [17] it was above 10000 nM; against Plasma kallikrein [10], 2.9 nM.
What is called Ki is the dissociation constant of the complex between target and ligand, obtained from inhibition or displacement. For `NCc1cccc(-n2nc(C(F)(F)F)cc2C(=O)Nc2cccc(C(OCC3CC3)c3ccccc3)c2)c1` (configuration not stated), on Plasma kallikrein [1], the IC50 is 100 nM and the Ki is 0.1 nM.
The compound `COCc1nn(Cc2ccc(Cn3cc(C)cn3)cc2)cc1C(=O)NCc1cnc2[nH]cc(Cl)c2c1` displayed an IC50 at Plasma kallikrein [15] of 8.7 nM.
Consider `NC(CCC1CC1)(c1ccc(F)c(NC(=O)[C@H]2C[C@@H](O)CN2C(=O)Nc2ccc(Cl)cc2)c1)c1ccccn1` (some centres not stated), for which the IC50 on Plasma kallikrein [1] was below 50 nM.
